Laboratory results reported in patent EP4029501A1, “COMBINATION OF POLYAROMATIC UREA DERIVATIVES AND GLUCOCORTICOID OR HDAC INHIBITOR FOR THE TREATMENT OF DISEASES OR CONDITIONS ASSOCIATED WITH MUSCLE CELLS AND/OR SATELLITE CELLS” (Anagenesis Biotechnologies, priority 2021, dated 2022).

Test system: muscle progenitors derived from DMD hiPSC
Assay: Myotube assay: total myotube area per well (alpha-actinin staining)
Assay type: cell-based, human
Settings: Homo sapiens, Myotube, 72 h, DMD or WT cell source not given; for Emax: efficacy, MA = normalized Myotube Area, 3 days incubation; for EC50: myogenic activity, half-maximal generation of myotubes, 10 points dose-response 1.5 nM to 30 µM, 3 days
Procedure: An in vitro assay for assessing the efficacy of compounds for use in treating, ameliorating, delaying, curing and/or preventing a disease or condition associated with muscle cells and/or satellite cells is described in example 78. Herein, the generation of myotubes and satellite cells after adding a compound to a myotube assay workflow is assessed. Said myotube assay workflow is derived from wild-type or DMD human induced pluripotent stem cells (WT hiPSC or DMD hiPSC). Before the addition of said compound, the assay comprises satellite-like cells, but no significant amount of myotubes.
The efficacy of said compound for use in treating, ameliorating, delaying, curing and/or preventing a disease or condition associated with muscle cells and/or satellite cells is positively correlated with the generation of myotubes (i.e. the increase of the area occupied by myotubes on the assay) and/or satellite cells (i.e. the increase of the number of satellite cells) in the assay after adding said compound. The generation of myotubes by the addition of said compound is expressed as the EC50 value, the concentration of said compound that corresponds with the half-maximal generation of myotubes, and the MA (normalized myotube area) value, the normalized area occupied by generated myotubes on the assay. […] Since muscle cells are formed from myotubes during myogenesis, the generation of myotubes in the assay is a good indicator of the ability of said compound to induce the formation of functional muscle cells in vivo. The number of satellite cells is measured as the percentage of Pax7 positive cells, relative to the total number of cells in the assay, as shown in Figure 3. The percentage of Pax7 is a good indicator of the ability of said compound to induce the formation of satellite cells which are able to play a role in muscle repair and regeneration in vivo.
DMD human induced pluripotent stem cells (hereafter "DMD hiPSC"), generated from the NCRM-1 hiPSC WT cell line by gene editing, or WT human induced pluripotent stem cells (hereafter "WT hiPSC"), being NCRM-1 hiPSC wt cell line, have been differentiated according to Chal et al. 2015, 2016, to produce muscle progenitors (hereafter "hMP"). The hMP population contains satellite-like cells (i.e Pax7-positive cells) and satellite cells' progenies (i.e. Myogenin-positive cells).
Figure 1 provides an example of a Myotube assay workflow. At day 0, hMP are thawed and 3.1 million cells are plated into a T75-flask coated with hESC-qualified Matrigel™ (Corning) in SkGM proliferating medium (PromoCells), supplemented with 5 µM Y-27632 (Tocris Bioscience). On day 2, SkGM proliferating medium is refreshed. On day 4, hMP are harvested and transferred into a 384-well plate coated with collagen type I at a density of 3500 cells/well in a DMEM-based medium, containing 5% of knockout serum replacement (Gibco), 1% PenStrep (Gibco), 1% MEM NEAA (Gibco) and 0.1 mM 2-mercaptoethanol (Gibco) (hereafter "K5 medium") and 5 µM Y-27632. Compounds to be tested are then added in the medium and incubated for 3 days at 37°C. On day 7, cells are fixed and immunostained. For example, myotubes (alpha-actinin staining) and satellite-like (Pax7 staining) cells can be analyzed for total myotube area per well or Pax7-positive cell quantification.
DMD hMP were put in the Myotube assay according to the workflow described in Example 2.1. In particular, compound (i) was added at concentrations ranging from 1.5 nM to 30 µM, starting from day 4. hMP were cultivated for three more days in presence of compound (i), then fixed and analyzed for quantification of total myotube area per well. Duplicates of each condition were averaged.

EC50 [nM] | Structure (SMILES) | Emax [%]
1000 to 5000 | CC(C)(C)c1cc(NC(=O)Nc2ccc(Oc3ccnc4[nH]c(=O)cnc34)cn2)n(-c2ccccc2)n1 [(u), 1-(3-(tert-butyl)-1-phenyl-1 H-pyrazol-5-yl)-3-(5-((3-oxo-3,4-dihydropyrido[2,3-b]pyrazin-8-yl)oxy)pyridin-2-yl)urea] | 25 to 50
< 500 | CCSc1cc(Oc2ccnc3[nH]c(=O)cnc23)ccc1NC(=O)Nc1cc(C(C)(C)C)nn1-c1ccccc1 [(am), 1-(3-(tert-butyl)-1-phenyl-1 H-pyrazol-5-yl)-3-(2-(ethylthio)-4-((3-oxo-3,4-dihydropyrido[2,3-b]pyrazin-8-yl)oxy)phenyl)urea] | ≥ 75
500 to 1000 | CC(C)(C)c1nc(NC(=O)Nc2ccc(Oc3ccnc4[nH]c(=O)cnc34)cc2F)n(-c2ccccc2)n1 [(p), 1-(3-(tert-butyl)-1-phenyl-1 H-1,2,4-triazol-5-yl)-3-(2-fluoro-4-((3-oxo-3,4-dihydropyrido[2,3-b]pyrazin-8-yl)oxy)phenyl)urea] | 25 to 50
≥ 5000 | CC(C)(C)c1cc(NC(=O)Nc2ccc(Oc3ccnc4[nH]c(=O)cnc34)cc2F)n(-c2ncccn2)n1 [(m), 1-(3-(tert-butyl)-1-(pyrimidin-2-yl)-1 H-pyrazol-5-yl)-3-(2-fluoro-4-((3-oxo-3,4-dihydropyrido[2,3-b]pyrazin-8-yl)oxy)phenyl)urea] | 50 to 75
≥ 5000 | CSc1cc(Oc2cccc3[nH]c(=O)cnc23)ccc1NC(=O)Nc1cc(C(C)(C)C)nn1-c1ccccc1 [(bu), 1-(3-(tert-butyl)-1-phenyl-1H-pyrazol-5-yl)-3-(2-(methylthio)-4-((2-oxo-1,2-dihydroquinoxalin-5-yl)oxy)phenyl)urea] | 25 to 50
< 500 | CSc1cc(Oc2ccnc3c2CCC(=O)N3)ccc1NC(=O)Nc1cc(C(C)(C)C)nn1-c1ccccc1 [(an), 1-(3-(tert-butyl)-1-phenyl-1H-pyrazol-5-yl)-3-(2-(methylthio)-4-((7-oxo-5,6,7,8-tetrahydro-1,8-naphthyridin-4-yl)oxy)phenyl)urea] | ≥ 75
≥ 5000 | CC(C)c1cc(NC(=O)Nc2ccc(Oc3ccnc4[nH]c(=O)cnc34)cc2F)n(-c2ccccc2)n1 [(b), 1-(2-fluoro-4-((3-oxo-3,4-dihydropyrido[2,3-b]pyrazin-8-yl)oxy)phenyl)-3-(3-isopropyl-1-phenyl-1 H-pyrazol-5-yl)urea] | 25 to 50
< 500 | CC(C)(C)c1cc(NC(=O)Nc2ccc(Oc3ccnc4[nH]c(=O)cnc34)cc2C(F)(F)F)n(-c2ccccc2)n1 [(v), 1-(3-(tert-butyl)-1-phenyl-1H-pyrazol-5-yl)-3-(4-((3-oxo-3,4-dihydropyrido[2,3-b]pyrazin-8-yl)oxy)-2-(trifluoromethyl)phenyl)urea] | ≥ 75
500 to 1000 | CC(C)(C)c1cc(NC(=O)Nc2cc(Oc3ccnc4[nH]c(=O)cnc34)ccc2F)n(-c2ccccc2)n1 [(cq), 1-(3-(tert-butyl)-1-phenyl-1 H-pyrazol-5-yl)-3-(2-fluoro-5-((3-oxo-3,4-dihydropyrido[2,3-b]pyrazin-8-yl)oxy)phenyl)urea] | ≥ 75
≥ 5000 | CSc1cc(Oc2ccnc3[nH]c(=O)cnc23)ccc1NC(=O)Nc1cc(C(C)(C)C)nn1-c1ccc(Cl)cc1 [(ao), 1-(3-(tert-butyl)-1-(4-chlorophenyl)-1H-pyrazol-5-yl)-3-(2-(methylthio)-4-((3-oxo-3,4-dihydropyrido[2,3-b]pyrazin-8-yl)oxy)phenyl)urea] | ≥ 75
< 500 | CSc1cc(Oc2ccnc3[nH]c(=O)cnc23)ccc1NC(=O)Nc1cc(C(C)(C)C)nn1-c1cccc(Cl)c1 [(as), 1-(3-(tert-butyl)-1-(3-chlorophenyl)-1H-pyrazol-5-yl)-3-(2-(methylthio)-4-((3-oxo-3,4-dihydropyrido[2,3-b]pyrazin-8-yl)oxy)phenyl)urea] | ≥ 75
1000 to 5000 | O=C(Nc1ccc(Oc2ccnc3[nH]c(=O)cnc23)cc1F)Nc1cc(C2(C(F)(F)F)CC2)nn1-c1ccccc1 [(d), 1-(2-fluoro-4-((3-oxo-3,4-dihydropyrido[2,3-b]pyrazin-8-yl)oxy)phenyl)-3-(1-phenyl-3-(1-(trifluoromethyl)cyclopropyl)-1 H-pyrazol-5-yl)urea] | 50 to 75

The remaining lines, values behind:

Structure (SMILES) | EC50 [nM] | Emax [%]
CC(C)(C)c1cc(NC(=O)Nc2ccc(Oc3ccc(F)cc3)cc2F)n(-c2ccccc2)n1 [(af), 1-(3-(tert-butyl)-1-phenyl-1 H-pyrazol-5-yl)-3-(2-fluoro-4-(4-fluorophenoxy)phenyl)urea] | 1000 to 5000 | 25 to 50
CSc1cc(Oc2ccnc3c2CCC(=O)N3)ccc1NC(=O)Nc1cncc(C(F)(F)F)c1 [(cg), 1-(2-(methylthio)-4-((7-oxo-5,6,7,8-tetrahydro-1,8-naphthyridin-4-yl)oxy)phenyl)-3-(5-(trifluoromethyl)pyridin-3-yl)urea] | ≥ 5000 | ≥ 75
CSc1cc(Oc2ccnc(NC(=O)CO)c2)ccc1NC(=O)Nc1cc(C(C)(C)C)nn1-c1ccccc1 [(dq), N-(4-(4-(3-(3-(tert-butyl)-1-phenyl-1H-pyrazol-5-yl)ureido)-3-(methylthio)phenoxy)pyridin-2-yl)-2-hydroxyacetamide] | 500 to 1000 | ≥ 75
CC(=O)Nc1cc(Oc2ccc(NC(=O)Nc3cc(C(C)(C)C)nn3-c3ccccc3)c(F)c2)ccn1 [(ae), N-(4-(4-(3-(3-(tert-butyl)-1-phenyl-1H-pyrazol-5-yl)ureido)-3-fluorophenoxy)pyridin-2-yl)acetamide] | ≥ 5000 | 50 to 75
CC(C)(C)c1cc(NC(=O)Nc2ccc(Oc3ccncc3)cc2F)n(-c2ccccc2)n1 [(ad), 1-(3-(tert-butyl)-1-phenyl-1H-pyrazol-5-yl)-3-(2-fluoro-4-(pyridin-4-yloxy)phenyl)urea] | 500 to 1000 | 25 to 50
CNC(=O)c1ccc(Oc2cccc(NC(=O)Nc3cc(C(C)(C)C)nn3-c3ccccc3)c2)cn1 [(ab), 5-(3-(3-(3-(tert-butyl)-1-phenyl-1H-pyrazol-5-yl)ureido)phenoxy)-N-methylpicolinamide] | 500 to 1000 | 50 to 75
CSc1cc(Oc2ccnc3[nH]c(=O)cnc23)ccc1NC(=O)Nc1nnc(C(C)(C)C)s1 [(z), 1-(5-(tert-butyl)-1,3,4-thiadiazol-2-yl)-3-(2-(methylthio)-4-((3-oxo-3,4-dihydropyrido[2,3-b]pyrazin-8-yl)oxy)phenyl)urea] | ≥ 5000 | ≥ 75
CSc1cc(Oc2ccnc3[nH]c(=O)cnc23)ccc1NC(=O)Nc1cc(C(C)(C)C)on1 [(dh), 1-(5-(tert-butyl)isoxazol-3-yl)-3-(2-(methylthio)-4-((3-oxo-3,4-dihydropyrido[2,3-b]pyrazin-8-yl)oxy)phenyl)urea] | 1000 to 5000 | ≥ 75
CNC(=O)c1cc(Oc2ccc(NC(=O)Nc3cc(C(C)(C)C)nn3-c3ccc4ncccc4c3)c(SC)c2)ccn1 [(ag), 4-(4-(3-(3-(tert-butyl)-1-(quinolin-6-yl)-1H-pyrazol-5-yl)ureido)-3-(methylthio)phenoxy)-N-methylpicolinamide] | 1000 to 5000 | ≥ 75
CSc1cc(Oc2ccnc3c2CCC(=O)N3)ccc1NC(=O)Nc1cc(C(C)(C)C)nn1-c1ccc(C)cc1 [(by), 1-(3-(tert-butyl)-1-(p-tolyl)-1H-pyrazol-5-yl)-3-(2-(methylthio)-4-((7-oxo-5,6,7,8-tetrahydro-1,8-naphthyridin-4-yl)oxy)phenyl)urea] | < 500 | ≥ 75
